Each block holds one compound with its values, some of them ahead of it.
How the values were obtained:
HL-60 cells = experiment: MTT assay, inhibition of HL-60 cells; format: cell-based, human; settings: HL-60, Table 15
Method: Human cancer cell lines (KB, A2780, MCF-7, HL-60, A549) were used. For a monolayer culture, 0.5 ml of trypsin solution ([…]) was added to the flasks for digestion. Microtiter plates (96 well) were used for the cell culture and 200 μl of cell suspension (1200 tumor cells) were placed in each well and incubated at 37° C. for 24 hours. Following the addition of the test compound, the control and treated flasks were placed in a CO2 incubator for 5 day culture. For the MTT assay, 200 μl of MTT solution (5 mg in 10 ml of phosphate buffer) plus the medium were added and incubated for another 4 hours. Following incubation, the supernatant was discarded and 200 μl of DMSO was added to each well. With a mild agitation the OD values were determined by the MR 700 Elisa at 570 nm (reference wavelength was 450 nm). The ED50 of the compound and tumor cell survival rate [formula] as percent inhibition were calculated.
(§1) The protocols of Examples 14 and 21 were used, for the NBT and MTT assays, respectively.

[1] = system: Human promyelocytic leukemia HL-60 cells; experiment: Cell differentiation of HL-60 cells, nitroblue tetrazolium (NBT) reduction / morphology; format: cell-based
Method: Human promyelocytic leukemia HL-60 cells were cultured in RPMI-1640 medium supplemented by 10% heat-inactivated calf serum and 100 U/ml of penicillin plus 100 μg/ml of streptomycin. The flasks containing cells and medium were incubated in an incubator with 5% CO2 at 37° C. Log phase cells were seeded into the medium at a concentration of 1.2×10^5to 1.4×10^5 cells per ml and cultured in flasks containing 5 ml of medium. Each group consisted of three flasks. Different concentrations of coumarin-retinoids were added. At intervals following the addition of coumarin-retinoids to the cultures, a small portion of cells was removed and live cells were counted under a light microscope using a dye-exclusionmethod with trypan blue. Cell differentiation was judged in terms of morphology and nitroblue tetrazolium (NBT) reduction.
For a determination of NBT reducing activity, a portion of the coumarin-retinoid-treated cells was removed at intervals following treatment and centrifuged. After centrifugation, 0.5 ml of 0.1% NBT (containing 100 ng TPA) was added to each tube. The contents of the test tubes were then incubated for 1 hour at 37° C. Cell smears were prepared from the cell sediment and stained using the Wright-Giemsa technique. For each smear prepared, 200 cells were isolated for examination under a light microscope with an oil immersion lens. Cells stained with blue-black granules were considered NBT-positive cells. The 50% differentiation or effective concentration (ED50 or EC50) is shown in terms of molar (M) concentration of the […] tested.
For a determination of cell morphology, a cell smear was prepared at intervals following treatment of cells for each coumarin-retinoid concentration group using the Wright-Giemsa stain technique. Stained cells were counted and classified under a light microscope with an oil immersion lens. After treatment with coumarin-retinoids, the morphological development of HL-60 cells proceeded toward mature granulocytes. This development was manifested by decreased cell volume; a lower nuclei to cytoplasm ratio; smaller or missing nuclei; concentration of chromatin; and the appearance of a certain proportion of intermediate and late granuloblasts (progranulocytes), elongated rod granulocytes, and granulocytes with branched nuclei.
as §1

[2] = system: Ornithine decarboxylase (ODC); experiment: Croton oil induced ornithine decarboxylase (ODC) activity in mouse epidermis; format: in vivo; settings: ICR mice, single dose pretreatment; FIG. 1, n=3
Method: ICR mice (6-8 weeks old) were pretreated with a single dose of coumarin retinoid. On the third day, the animals received a topical application of 0.2 ml of 1% croton oil in acetone. All animals were sacrificed five hours after the croton oil treatment and the epidermis was separated by a brief heat treatment at 52° C. for 30 seconds and minced in a blender. The cell suspension and broth were separated by a centrifugation at 30,000×g for 30 seconds and the supernatant was obtained. Ornithine decarboxylase (ODC) enzyme activity was determined by measuring the release of CO2 from L-(^14 C)-ornithine and expressed as nmole CO2 /30 min/mg protein and the results for coumarin retinoid I-10 and I-6 are shown in FIG. 1. […] ODC activity is a critical parameter for monitoring cancer chemoprevention or promotion.

[3] = system: croton oil induced ear edema in mice; experiment: Croton oil induced ear edema in mice; format: in vivo
Method: ICR mice (body weight 18-20 grams) were used. Each group consisted of 10 mice. After three dosage treatments, the left ears of the mice in both the treated group and the control group were painted with 2% croton oil in 0.05 ml ether. All the mice were sacrificed six hours later and the ears of both sides were punched by a corneal knife and weighed, the difference of the ear weight of both sides for each mouse was calculated. The t- Student test was used for statistical calculation. Croton oil induced ear edema is a classical assay for evaluation of cancer promotion.

fetus absorption in mice = experiment: Effect on fetus absorption in mice; format: in vivo
Method: (§2) Female mice were examined by vaginal smear the morning after being caged with male mice, and if sperm or a vaginal plug was discovered, then the mice were determined to be pregnant. The retinoids were administered at the dosage indicated starting on the seventh day of pregnancy and continued once a day for the next ten days. On the 20th day after the female mice were determined to be pregnant, they were sacrificed by cervical dislocation. Both sides of the uterus were checked and the number of living embryos, dead embryos, and absorbed embryos were counted. The living embryos were further examined for bone abnormalities.

chondrosarcoma = experiment: Growth of chondrosarcoma in rats; format: in vivo; settings: for Body Weight final: in g (unit assumed)
Description: Transplantable chondrosarcomas obtained from Dr. Trown, Hoffman--La Roche Institute of Molecular Biology and Wistar rats obtained from the Breeding Center of Experimental Animals, Chinese Academy of Medical Sciences were used. According to the routine transplantation protocol as described in Cancer Treatment Reports 60(11):1647-1653 (1976) where the small pieces of chondrosarcoma tumor were implanted subcutaneously in the right inguinal region of rats using a trocar. Tumor-bearing rats were randomized to a control group and a treated group. Each group consisted of ten rats. […] Sixty days after transplantation, the rats were sacrificed and the tumor weight was determined. The inhibition rate was calculated according to the following formula: [formula]

[4] = system: bone abnormalities in mouse fetus; experiment: Bone abnormalities in mouse fetus; format: in vivo
Method: as §2
After the embryos became transparent, they were dissected and their skeletons were checked by observation under a microscope.

[5] = system: lipid peroxidation of rat liver microsome; experiment: Inhibition of Fe+2/Cys induced lipid peroxidation of rat liver microsome; format: biochemical
Method: Lipid peroxidation was induced by adding 1 mM FeSO4 and 10 mM cysteine to the microsome fraction of rat liver with the incubations being carried out at 37° C. for 30 minutes in a reaction mixture containing 10 mM phosphate buffer (pH 7.4). The reaction was terminated by the addition of 0.3 ml of 20% trichloroacetic acid solution. Thiobarbituric acid was then added and the mixture was boiled for 10 minutes. After cooling the test tubes under running tap water, the optical density at 532 nm was measured. Lipid peroxidation in both the treated groups and the control group was expressed in nmol MDA/mg protein. The percentage inhibition indicates the anti-oxidation properties of the coumarin retinoids tested.

[6] = system: Salmonella typhimurium strain TA100; experiment: Anti-mutagenicity (Ames), TA100; format: cell-based; settings: MMS mutagen alone, 0.5 μl/plate
Method: (§3) An antimutagenicity assay was conducted according to the method developed by Ames et al. using Salmonella typhimurium strains TA 102 and TA 100 and mammalian microsomal enzymes. Beta-naphthoflavone and phenobarbital-induced rat liver supernatant (9000×g S-9 fraction) was used as the enzyme source for metabolic activation. The night before the experiment, certified bacterial solution (assessed for its biological characteristics and donated by Professor Ames) was inoculated into petri dishes. The petri dishes were then incubated for 15 hours at 37° C. From each petri dish, 0.1 ml of the bacterial solution was removed and added to sterile test tubes. To these test tubes, 0.1 ml of different concentrations of coumarin retinoids and 0.5 ml of either S-9 mixed solution or phosphate buffer were then added. The final solution for each test tube was incubated in a water bath at 37° C. for 20 minutes before adding 2 ml of agar solution. After thorough mixing, the solution was transferred into petri dishes and incubated once again at 37° C. for 48 hours. After incubation, the number of colonies in each petri dish were counted. The revertant numbers of the bacteria in control and treated groups were compared and the inhibition rate was calculated.

[7] = system: Salmonella typhimurium strain TA102; experiment: Anti-mutagenicity (Ames), TA102; format: cell-based; settings: MMS mutagen alone, 0.5 μl/plate
Method: as §3

SMILES: CC(=O)c1cc2c(OC(=O)/C=C(C)/C=C/C=C(C)/C=C/C3=C(C)CCCC3(C)C)cc(OC(=O)/C=C(C)/C=C/C=C(C)/C=C/C3=C(C)CCCC3(C)C)cc2oc1=O [Compound I-10]
- inhibition of croton oil induced ODC activity [2]: significantly inhibited the ODC activity induced by croton oil
- Ear Edema (x ± SD) ([3]; 50 mg/kg): 14.2 ± 2.3 mg
- IR (%) ([3]; 50 mg/kg): 14%
- Ear Edema (x ± SD) ([3]; 100 mg/kg): 11.3 ± 3.0 mg
- IR (%) ([3]; 100 mg/kg): 32%
- Fetus Absorption, absorbed number/implanted number (fetus absorption in mice; 20 mg/kg once a day from day 7 of pregnancy): 0/104
- Fetus Absorption, absorbed number/implanted number (fetus absorption in mice; 40 mg/kg once a day from day 7 of pregnancy): 0/107
- Inhibition rate (%) (chondrosarcoma; 5 mg/kg P.O. (Table 13)): 14.8%
- Tumor Weight (chondrosarcoma; 5 mg/kg P.O. (Table 13)): 12.1 grams
- Animals final (chondrosarcoma; 5 mg/kg P.O., initial 10 (Table 13)): 10
- Body Weight final (chondrosarcoma; 5 mg/kg P.O., initial 97.8 (Table 13)): 258.4
- Tumor Weight (chondrosarcoma; 10 mg/kg P.O.): 12.8 grams
- Animals final (chondrosarcoma; 10 mg/kg P.O., initial 10): 9
- Body Weight final (chondrosarcoma; 10 mg/kg P.O., initial 98.2): 248.0
- Tumor Weight (chondrosarcoma; 20 mg/kg P.O.): 8.2 grams
- Animals final (chondrosarcoma; 20 mg/kg P.O., initial 10): 9
- Body Weight final (chondrosarcoma; 20 mg/kg P.O., initial 97.4): 253.1
- NBT (+) % ([1]; 6.4 × 10^-6 M): 99%
- NBT (+) % ([1]; 6.4 × 10^-7 M): 96%
- NBT (+) % ([1]; 6.4 × 10^-8 M): 82%
- NBT (+) % ([1]; 6.4 × 10^-9 M): 33%
- NBT (+) % ([1]; 6.4 × 10^-10 M): 10%
- Delayed Calcification, Occipital delay/fetus number ([4]; 20 mg/kg): 22/66
- Delayed Calcification, Sternum delay/fetus number ([4]; 20 mg/kg): 14/66
- Delayed Calcification, Occipital delay/fetus number ([4]; 40 mg/kg): 15/81
- Delayed Calcification, Sternum delay/fetus number ([4]; 40 mg/kg): 21/81

SMILES: CC(=O)c1cc2ccc(OC(=O)/C=C(C)/C=C/C=C(C)/C=C/C3=C(C)CCCC3(C)C)c(C(=O)O)c2oc1=O [Compound I-5]
- Inhibition (%) of lipid peroxidation ([5]; 1 μM): 7.3%
- Inhibition (%) of lipid peroxidation ([5]; 10 μM): 16.6%
- Lipid Peroxidation ([5]; 10 μM, n = 3, p < 0.05): 1.95 ± 0.18 μM MDA/mg protein
- Inhibition (%) of lipid peroxidation ([5]; 100 μM): 36.6%
- Lipid Peroxidation ([5]; 100 μM, n = 3, p < 0.01): 1.43 ± 0.16 μM MDA/mg protein
- NBT (+) % ([1]; 10^-4 M): 69%
- NBT (+) % ([1]; 10^-5 M): 89%
- NBT (+) % ([1]; 10^-7 M): 41%

SMILES: COS(C)(=O)=O [MMS]
- his+ -revertants/per plate, TA100 [6]: 1083.7 ± 99.3 revertants/per plate
- his+ -revertants/per plate, TA102 [7]: 1760 ± 288.4 revertants/per plate

SMILES: CC(=O)c1cc2cc(Cl)c(OC(=O)/C=C(C)/C=C/C=C(C)/C=C/C3=C(C)CCCC3(C)C)cc2oc1=O [Compound I-6]
- Inhibition (%) of lipid peroxidation ([5]; 20 μM): 9.6%
- Inhibition (%) of lipid peroxidation ([5]; 200 μM): 13.5%
- Lipid Peroxidation ([5]; 200 μM, n = 3, p < 0.05): 2.03 ± 0.16 μM MDA/mg protein
- inhibition of croton oil induced ODC activity [2]: significantly inhibited the ODC activity induced by croton oil
- Ear Edema (x ± SD) ([3]; 50 mg/kg): 13.4 ± 3.1 mg
- IR (%) ([3]; 50 mg/kg): 19%
- Ear Edema (x ± SD) ([3]; 100 mg/kg): 15.1 ± 2.7 mg
- IR (%) ([3]; 100 mg/kg): 9%
- NBT (+) % ([1]; 10^-4 M): 96%
- NBT (+) % ([1]; 10^-5 M): 81%
- NBT (+) % ([1]; 10^-6 M): 78%
- NBT (+) % ([1]; 10^-7 M): 31%
- NBT (+) % ([1]; 10^-8 M): 2%

The next lines start with the values.

- EC50 (HL-60 cells): 11 µM
- EC50 ([1]; HL-60, Table 15, read-out: NBT ED50): 13 µM
SMILES: CC1=C(/C=C/C(C)=C/C=C/C(C)=C/C(=O)Oc2ccc3c(C)cc(=O)oc3c2)C(C)(C)CCC1 [Compound I-32, 4-methyl-7-retinoyloxy-coumarin]

- EC50 (HL-60 cells; Homo sapiens): 1.9 µM
SMILES: CC1=C(/C=C/C(C)=C/C=C/C(C)=C/C(=O)Oc2cc(=O)oc3c(C)cccc23)C(C)(C)CCC1 [Compound I-29]

- EC50 (HL-60 cells; Homo sapiens): 3.2 µM
SMILES: CC1=C(/C=C/C(C)=C/C=C/C(C)=C/C(=O)Oc2ccc3c(C)cc(=O)oc3c2OC(=O)/C=C(C)/C=C/C=C(C)/C=C/C2=C(C)CCCC2(C)C)C(C)(C)CCC1 [Compound I-36, 4-methyl-7,8-diretinoyloxy-coumarin]

- EC50 (HL-60 cells; Homo sapiens): > 10 µM
SMILES: CC1=C(/C=C/C(C)=C/C=C/C(C)=C/C(=O)Oc2cc(=O)oc3ccc(C(C)(C)C)cc23)C(C)(C)CCC1 [Compound I-28, 4-retinoyloxy-6-t-butyl-coumarin]

Reference: patent publication US5968940A, “Retinoids and methods of use of same” (priority 1996, dated 1999)
